According to article PMC13266984 (Journal of medicinal chemistry, 2026):
Values joined by “and” are separate entries in the source; they are usually repeats but may differ in a detail not shown here. Identical values can stand only once.

Assays:
OE19 (3A1) = biological target: T1, OE19 (3A1) (Homo sapiens, UniProt P30838); assay: Cellular ALDEFLUOR assay in OE19 cells (preferential ALDH3A1 expression)
T1 sequence (P30838 1-453): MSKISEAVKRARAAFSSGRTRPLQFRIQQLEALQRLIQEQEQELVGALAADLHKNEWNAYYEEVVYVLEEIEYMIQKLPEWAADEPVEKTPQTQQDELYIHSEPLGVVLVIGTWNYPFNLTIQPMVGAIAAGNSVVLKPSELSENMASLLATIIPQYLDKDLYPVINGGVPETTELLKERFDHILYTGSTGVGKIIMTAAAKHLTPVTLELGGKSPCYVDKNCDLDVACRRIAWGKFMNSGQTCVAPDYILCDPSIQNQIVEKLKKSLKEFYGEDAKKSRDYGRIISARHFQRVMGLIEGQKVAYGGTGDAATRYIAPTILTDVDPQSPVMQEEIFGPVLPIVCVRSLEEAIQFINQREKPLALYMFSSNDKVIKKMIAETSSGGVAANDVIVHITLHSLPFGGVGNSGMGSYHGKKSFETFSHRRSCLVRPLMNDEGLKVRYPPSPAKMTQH

Human ALDH3A1 = biological target: T2, Human ALDH3A1 (Homo sapiens, UniProt P30838); assay: ALDH3A1 biochemical assay (benzaldehyde/NADP+, diaphorase-resazurin readout, 1,536-well)
T2 sequence (P30838 1-453): T1 sequence (P30838 1-453)

[1] = Table S4, biochemical curve class
[2] = Table S5, biochemical curve class

Compound | AC50 (OE19 (3A1)) | Cell_Efficacy (OE19 (3A1); Table S4, OE19 cells) | Cell_CC-v2 (OE19 (3A1); Table S4, cellular curve class) | AC50 (Human ALDH3A1) | Efficacy (Human ALDH3A1; Table S4, biochemical) | CC-v2 (Human ALDH3A1; [1]) | activity in the biochemical assay (Human ALDH3A1; in words) | Cell_Efficacy (OE19 (3A1); Table S5, OE19 cells) | Cell_CC-v2 (OE19 (3A1); Table S5, cellular curve class) | Efficacy (Human ALDH3A1; Table S5, biochemical) | CC-v2 (Human ALDH3A1; [2]) | IC50 (OE19 (3A1); cellular IC50 (Aldefluor), OE19 cells) | IC50 (Human ALDH3A1; ALDH3A1 biochemical IC50)
C[S+](=N)([O-])c1cccc(CNC(=O)c2csc(N3CCN(c4cccc(C(F)(F)F)c4)CC3)n2)c1 (stereo not shown) [NCGC01407817-01] | 31.6 nM |  |  | 8910 nM |  |  |  | -111.10 | -1.1 | -57.06 | -1.2 |  | 
Cc1ccc(CNC(=O)c2csc(N3CCN(c4cccc(C(F)(F)F)c4)CC3)n2)cc1C(F)(F)F [NCGC01407772-01] | 644 nM |  |  | 59.6 nM |  |  |  | -100.81 | -1.1 | -88.60 | -1.1 |  | 
O=C(NCc1ccc(C(F)F)c(F)c1)c1csc(N2CCN(c3cccc(C(F)(F)F)c3)CC2)n1 [NCGC01407984-01] | 242 nM |  |  | 14.1 nM |  |  |  | -105.03 | -2.2 | -99.03 | -1.1 |  | 
Cc1cccc(CNC(=O)c2csc(N3CCN(Cc4cccc(C)c4)CC3)n2)c1 [NCGC01211187-01] | 4420 nM | -121.01 | -2.1 | 910 nM | -93.83 | -1.1 |  |  |  |  |  |  | 
O=C(NCc1ccc(-c2ccsc2)cc1)c1csc(N2CCN(c3cccc(C(F)(F)F)c3)CC2)n1 [NCGC01397331-01] | 3050 nM |  |  | 4 nM |  |  |  | -82.49 | -1.3 | -97.11 | -1.1 |  | 
O=C(NCc1cccc([S+](=O)([O-])C(F)(F)F)c1)c1csc(N2CCN(c3cccc(C(F)(F)F)c3)CC2)n1 [NCGC01397299-01] | 79.4 nM |  |  | 447 nM |  |  |  | -61.99 | -1.2 | -37.47 | -1.2 |  | 
O=C(NCc1ccccc1-c1ccc(Cl)cc1Cl)c1csc(N2CCN(c3cccc(C(F)(F)F)c3)CC2)n1 [NCGC01407762-01] | 11200 nM |  |  |  |  |  |  | -62.69 | -1.4 | 0.00 | 4 |  | 
O=C(NCc1cc(F)cc(Br)c1)c1csc(N2CCN(c3cccc(C(F)(F)F)c3)CC2)n1 [NCGC01397297-01] | 2160 nM |  |  | 3.6 nM |  |  |  | -85.43 | -1.1 | -107.41 | -1.1 |  | 
CC(=O)c1ccc(CNC(=O)c2csc(N3CCN(c4cccc(C(F)(F)F)c4)CC3)n2)cc1 [NCGC01397292-01] | 683 nM |  |  | 20 nM |  |  |  | -111.50 | -2.1 | -100.00 | -1.1 |  | 
CC1(C)Oc2ccc(CNC(=O)c3csc(N4CCN(c5cccc(C(F)(F)F)c5)CC4)n3)cc2O1 [NCGC01397390-01] | 1920 nM |  |  | 25.1 nM |  |  |  | -76.04 | -1.1 | -96.99 | -1.1 |  | 
O=C(NCc1ccc(SC(F)(F)F)cc1)c1csc(N2CCN(c3cccc(C(F)(F)F)c3)CC2)n1 [NCGC01407771-01] | 3050 nM |  |  | 25.1 nM |  |  |  | -89.96 | -1.2 | -94.50 | -1.1 |  | 
COc1ccc(N2CCN(c3nc(C(=O)NCc4cccc(C(F)(F)F)c4)cs3)CC2)cc1 [NCGC01211588-01] | 1970 nM | -97.51 | -1.1 | 1290 nM | -45.52 | -1.2 |  |  |  |  |  |  | 
Cc1cccc(CNC(=O)c2csc(N3CCN(c4ccc([S+](=O)([O-])F)cc4)CC3)n2)c1 [NCGC01211171-01] | 1970 nM | -83.98 | -1.1 | 1150 nM | -53.27 | -1.2 |  |  |  |  |  |  | 
C[S+](=O)([O-])c1cccc(CNC(=O)c2csc(N3CCN(c4cccc(C(F)(F)F)c4)CC3)n2)c1 [NCGC01407971-01] | 251 nM |  |  | 891 nM |  |  |  | -83.43 | -1.1 | -53.81 | -1.2 |  | 
Cc1cc(CNC(=O)c2csc(N3CCN(c4cccc(C(F)(F)F)c4)CC3)n2)cc(C)c1Br [NCGC01407759-01] |  |  |  | 398 nM |  |  |  | 0.00 | 5 | -29.26 | -1.4 |  | 
O=C(NCCc1cccc(OCCCc2ccccc2)c1)c1csc(N2CCN(c3cccc(C(F)(F)F)c3)CC2)n1 [NCGC01407986-01] | 501 nM |  |  | 562 nM |  |  |  | -92.16 | -1.1 | -31.39 | -1.2 |  | 

Second part, the compound after the results:

AC50 (OE19 (3A1)) | Cell_Efficacy (OE19 (3A1); Table S4, OE19 cells) | Cell_CC-v2 (OE19 (3A1); Table S4, cellular curve class) | AC50 (Human ALDH3A1) | Efficacy (Human ALDH3A1; Table S4, biochemical) | CC-v2 (Human ALDH3A1; [1]) | activity in the biochemical assay (Human ALDH3A1; in words) | Cell_Efficacy (OE19 (3A1); Table S5, OE19 cells) | Cell_CC-v2 (OE19 (3A1); Table S5, cellular curve class) | Efficacy (Human ALDH3A1; Table S5, biochemical) | CC-v2 (Human ALDH3A1; [2]) | IC50 (OE19 (3A1); cellular IC50 (Aldefluor), OE19 cells) | IC50 (Human ALDH3A1; ALDH3A1 biochemical IC50) | Compound
1570 nM | -95.95 | -1.1 | 650 nM | -87.41 | -1.1 |  |  |  |  |  |  |  | Cc1cccc(CNC(=O)c2csc(N3CCN(c4cc(F)cc(F)c4)CC3)n2)c1 [NCGC01211133-01]
3510 nM | -68.27 | -1.2 | 460 nM | -99.36 | -1.1 | good activity |  |  |  |  |  |  | Cc1cccc(CNC(=O)c2csc(N3CCN(c4ccc(Cl)cn4)CC3)n2)c1 [Compound 11]
811 nM |  |  | 23.7 nM |  |  |  | -88.39 | -1.2 | -97.73 | -1.1 |  |  | O=C(NCc1cccc(Cl)c1)c1csc(N2CCN(c3cccc(C(F)(F)F)c3)CC2)n1 [NCGC01407982-01]
15700 nM | -77.14 | -1.2 | 2570 nM | -61.43 | -1.2 |  |  |  |  |  |  |  | Cc1cccc(CNC(=O)c2csc(N3CCN(c4cccc(O)c4)CC3)n2)c1 [NCGC01211119-01]
7850 nM | -90.86 | -1.1 | 580 nM | -96.11 | -1.1 |  |  |  |  |  |  |  | Cc1cccc(CNC(=O)c2csc(N3CCN(c4cccc(C(F)(F)F)n4)CC3)n2)c1 [NCGC01210535-01]
8810 nM | -87.39 | -1.1 | 1150 nM | -66.83 | -1.2 |  |  |  |  |  |  |  | COc1ccc(N2CCN(c3nc(C(=O)NCc4cccc(C)c4)cs3)CC2)c(OC)c1 [NCGC01211174-01]
790 nM | -88.59 | -1.1 | 510 nM | -83.25 | -1.1 |  |  |  |  |  |  |  | Cc1cccc(CNC(=O)c2csc(N3CCN(c4ccc(Cl)c(Cl)c4)CC3)n2)c1 [NCGC01211120-01]
200 nM | -86.93 | -1.3 | 410 nM | -94.28 | -1.1 |  |  |  |  |  |  |  | Cc1cccc(CNC(=O)c2csc(N3CCN(c4cccc(Br)c4)CC3)n2)c1 [Compound 10]
3130 nM | -106.55 | -1.3 | 730 nM | -94.33 | -1.1 |  |  |  |  |  |  |  | Cc1cccc(CNC(=O)c2csc(N3CCN(c4ccc(C(F)(F)F)cn4)CC3)n2)c1 [NCGC01210237-01]
2480 nM | -99.68 | -1.1 | 580 nM | -91.75 | -1.1 |  |  |  |  |  |  |  | CCc1ccc(N2CCN(c3nc(C(=O)NCc4cccc(C)c4)cs3)CC2)cc1Cl [NCGC01211398-01]
12400 nM | -81.66 | -1.3 | 910 nM | -88.53 | -1.1 |  |  |  |  |  |  |  | Cc1cccc(CNC(=O)c2csc(N3CCN(c4ccccc4Cl)CC3)n2)c1 [NCGC01211121-01]
3130 nM | -101.21 | -2.2 | 230 nM | -100.07 | -1.1 |  |  |  |  |  | 3130 nM | 230 nM and 229 nM | Cc1cccc(CNC(=O)c2csc(N3CCN(c4cccc(C(F)(F)F)c4)CC3)n2)c1 [Compound 5]
990 nM | -81.24 | -1.1 | 1290 nM | -72.39 | -1.2 |  |  |  |  |  |  |  | COC(=O)c1ccc(N2CCN(c3nc(C(=O)NCc4cccc(C)c4)cs3)CC2)cc1 [NCGC01211115-01]
35100 nM | -81.56 | -2.2 | 1020 nM | -95.69 | -1.1 |  |  |  |  |  |  |  | Cc1cccc(CNC(=O)c2csc(N3CCN(c4ncccc4C(F)(F)F)CC3)n2)c1 [NCGC01210654-01]
15700 nM | -112.70 | -2.1 | 910 nM | -88.99 | -1.1 |  |  |  |  |  |  |  | Cc1cccc(CNC(=O)c2csc(N3CCN(c4c(F)cccc4F)CC3)n2)c1 [NCGC01211383-01]
990 nM | -93.51 | -1.1 | 730 nM | -97.63 | -1.1 |  |  |  |  |  |  |  | Cc1cccc(CNC(=O)c2csc(N3CCN(c4cccc(OC(F)(F)F)c4)CC3)n2)c1 [NCGC01219289-01]
